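Compound exposure: 48 hours, 5 concentrations, 96-well plates. Here, GI50 denotes the concentration required for 50% inhibition of growth.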 Calls of active or inactive are those of the source. Rule as the data show it: active = GI50 up to about 1.1 µM and inactive = higher.
Experiments:
Assay in all cases: growth of human tumour cells (NCI), 48 h
[1] = test system: SN12C
[2] = test system: SK-OV-3
[3] = test system: EKVX
[4] = test system: HOP-62
[5] = test system: SK-MEL-5
[6] = test system: UACC-62
[7] = test system: PC-3
[8] = test system: NCI/ADR-RES
[9] = test system: MOLT-4
[10] = test system: DU-145
[11] = test system: HOP-92
[12] = test system: MDA-MB-231
[13] = test system: RPMI-8226
[14] = test system: A498
[15] = test system: SF-539
[16] = test system: SK-MEL-2
[17] = test system: T47D
[18] = test system: A549
[19] = test system: NCI-H522
[20] = test system: Hs-578T

With Cn1c(=O)c2nc(SCCN3CCOCC3)[nH]c2n(C)c1=S the GI50 [1] was > 100 µM (inactive), the GI50 [2] was > 100 µM (inactive) and the GI50 [3] was > 100 µM (inactive). The GI50 [4] was > 100 µM (inactive), the GI50 [5] was > 100 µM (inactive) and the GI50 [6] was > 100 µM (inactive). The GI50 [7] was > 100 µM (inactive), the GI50 [8] was > 100 µM (inactive) and the GI50 [9] was > 100 µM (inactive). For the same compound, the GI50 [10] was > 100 µM (inactive), the GI50 [11] was > 100 µM (inactive) and the GI50 [12] was > 100 µM (inactive). For the same compound, the GI50 [13] was > 100 µM (inactive), the GI50 [14] was > 100 µM (inactive) and the GI50 [15] was > 100 µM (inactive). The GI50 [16] was > 100 µM (inactive), the GI50 [17] was > 100 µM (inactive) and the GI50 [18] was > 100 µM (inactive). For the same compound, the GI50 [19] was > 100 µM (inactive) and the GI50 [20] was > 100 µM (inactive).
COc1cc2c(OC)c3cc(C)oc(=O)c3c(O)c2c(O)c1-c1c(OC)cc2c(OC)c3cc(C)oc(=O)c3c(O)c2c1O was tested, and the GI50 [1] was 20.7 µM (inactive), the GI50 [2] was 45.2 µM (inactive) and the GI50 [3] was 21.9 µM (inactive). The GI50 [4] was 15.2 µM (inactive), the GI50 [5] was 16.7 µM (inactive) and the GI50 [6] was 20.9 µM (inactive). For the same compound, the GI50 [7] was 14 µM (inactive), the GI50 [8] was 17.1 µM (inactive) and the GI50 [9] was 15.7 µM (inactive). The GI50 [10] was 33.9 µM (inactive), the GI50 [11] was 16.1 µM (inactive) and the GI50 [12] was 18.4 µM (inactive). The GI50 [13] was 17.3 µM (inactive), the GI50 [14] was 24.2 µM (inactive) and the GI50 [15] was 17.6 µM (inactive). For the same compound, the GI50 [16] was 17.5 µM (inactive), the GI50 [17] was 36.4 µM (inactive) and the GI50 [18] was 19.4 µM (inactive). The GI50 [19] was 18.7 µM (inactive) and the GI50 [20] was 34.2 µM (inactive).
CC(C)=CC(=O)OC1C2C(C)=CC(=O)C(O)C2(C)C2C3(O)OCC24C(CC(=O)OC14)C(C)C3O (stereo not given) was tested, and the GI50 [1] was 0.0479 µM (active), the GI50 [2] was 0.213 µM (active) and the GI50 [3] was 0.0577 µM (active). The GI50 [4] was 0.00942 µM (active), the GI50 [5] was 0.00308 µM (active) and the GI50 [6] was 0.00925 µM (active). For the same compound, the GI50 [7] was 0.00289 µM (active), the GI50 [8] was 0.0724 µM (active) and the GI50 [9] was 0.0011 µM (active). For the same compound, the GI50 [10] was 0.00354 µM (active), the GI50 [11] was 0.00684 µM (active) and the GI50 [12] was 0.0168 µM (active). The GI50 [13] was 0.00755 µM (active), the GI50 [14] was 0.117 µM (active) and the GI50 [15] was 0.00505 µM (active). The GI50 [16] was 0.0179 µM (active), the GI50 [17] was 0.00288 µM (active) and the GI50 [18] was 0.152 µM (active). The GI50 [19] was 0.00283 µM (active) and the GI50 [20] was 0.00225 µM (active).
For C=CCOC(=O)[C@@H]1C[C@@H](OC(C)(C)C)CN1C(=O)[C@@H]1[C@H]2OC(C)(C)O[C@H]2CN1C(=O)OCC1c2ccccc2-c2ccccc21, the GI50 [1] was 17 µM (inactive), the GI50 [2] was 17.2 µM (inactive) and the GI50 [3] was 5.05 µM (inactive). For the same compound, the GI50 [4] was 1.75 µM (inactive), the GI50 [5] was 18.9 µM (inactive) and the GI50 [6] was 17.7 µM (inactive). The GI50 [7] was 15.7 µM (inactive), the GI50 [8] was 3.68 µM (inactive) and the GI50 [9] was 15.6 µM (inactive). The GI50 [10] was 3.45 µM (inactive), the GI50 [11] was 18.1 µM (inactive) and the GI50 [12] was 17.9 µM (inactive). The GI50 [13] was 6.19 µM (inactive), the GI50 [14] was 15.7 µM (inactive) and the GI50 [15] was 14.8 µM (inactive). The GI50 [16] was 32.2 µM (inactive), the GI50 [17] was 19.4 µM (inactive) and the GI50 [18] was 15.3 µM (inactive). For the same compound, the GI50 [19] was 0.383 µM (active) and the GI50 [20] was 21.1 µM (inactive).
For CCOCc1nc2c(OC)c(-c3nc4ccc(N5CCN(C)CC5)cc4[nH]3)cc(OC)c2[nH]1, the GI50 [1] was 74.3 µM (inactive), the GI50 [2] was 71.4 µM (inactive) and the GI50 [3] was > 100 µM (inactive). For the same compound, the GI50 [4] was 25.6 µM (inactive), the GI50 [5] was 17.5 µM (inactive) and the GI50 [6] was 19.6 µM (inactive). The GI50 [7] was 63.4 µM (inactive), the GI50 [8] was > 100 µM (inactive) and the GI50 [9] was 31.2 µM (inactive). For the same compound, the GI50 [10] was 68.5 µM (inactive), the GI50 [11] was > 100 µM (inactive) and the GI50 [12] was 28.2 µM (inactive). For the same compound, the GI50 [13] was 40.1 µM (inactive), the GI50 [14] was 37 µM (inactive) and the GI50 [15] was 19.3 µM (inactive). The GI50 [16] was 20.6 µM (inactive), the GI50 [17] was > 100 µM (inactive) and the GI50 [18] was 46.9 µM (inactive). The GI50 [19] was 23.5 µM (inactive) and the GI50 [20] was 34.2 µM (inactive).
With OC(C1CCCC1=N/N=C1/CCCC1C(O)(C(F)(F)Cl)C(F)(F)Cl)(C(F)(F)Cl)C(F)(F)Cl (stereo not given) the GI50 [1] was > 10 µM (inactive), the GI50 [2] was > 10 µM (inactive) and the GI50 [3] was > 10 µM (inactive). For the same compound, the GI50 [4] was > 10 µM (inactive), the GI50 [5] was > 10 µM (inactive) and the GI50 [6] was > 10 µM (inactive). The GI50 [7] was > 10 µM (inactive), the GI50 [8] was > 10 µM (inactive) and the GI50 [9] was > 10 µM (inactive). The GI50 [10] was > 10 µM (inactive), the GI50 [11] was > 10 µM (inactive) and the GI50 [12] was > 10 µM (inactive). For the same compound, the GI50 [13] was > 10 µM (inactive), the GI50 [14] was > 10 µM (inactive) and the GI50 [15] was > 10 µM (inactive). For the same compound, the GI50 [16] was > 10 µM (inactive), the GI50 [17] was > 10 µM (inactive) and the GI50 [18] was > 10 µM (inactive). The GI50 [19] was > 10 µM (inactive) and the GI50 [20] was > 10 µM (inactive).
CCOC(=O)CCC(NC(=O)OCc1ccccc1)C(=O)NNC(=O)OC(C)(C)C (stereo not given) was tested, and the GI50 [1] was > 100 µM (inactive), the GI50 [2] was > 100 µM (inactive) and the GI50 [3] was > 100 µM (inactive). The GI50 [4] was > 100 µM (inactive), the GI50 [5] was > 100 µM (inactive) and the GI50 [6] was > 100 µM (inactive). The GI50 [7] was > 100 µM (inactive), the GI50 [8] was > 100 µM (inactive) and the GI50 [9] was > 100 µM (inactive). The GI50 [10] was > 100 µM (inactive), the GI50 [11] was > 100 µM (inactive) and the GI50 [12] was 41.7 µM (inactive). For the same compound, the GI50 [13] was > 100 µM (inactive), the GI50 [14] was > 100 µM (inactive) and the GI50 [15] was > 100 µM (inactive). The GI50 [16] was > 100 µM (inactive), the GI50 [17] was > 100 µM (inactive) and the GI50 [18] was > 100 µM (inactive). For the same compound, the GI50 [19] was > 100 µM (inactive) and the GI50 [20] was > 100 µM (inactive).

Source: ChEMBL document CHEMBL1201862, “PubChem BioAssay data set” (2004)
